Results as given in patent US20100063047A1 (KALYPSYS, INC., priority 2008, published 2010).

Assays:
human H4 = target: T1, human H4 (Homo sapiens, UniProt Q9H3N8); experiment: In vitro histamine H4 receptor cell-based aequorin bioluminescence antagonist assay; settings: CHO-K1 cells expressing human H4, aequorin and Gα16; histamine at EC80
T1 construct: host or cells: CHO-K1, also expressing mitochondrion-targeted aequorin and human Gα16
Protocol: In vitro Histamine Receptor Cell-Based Assays
The cell-based assays utilize an aequorin dependent bioluminescence signal. Doubly-transfected, stable CHO—K1 cell lines expressing human H1 or H4, mitochondrion-targeted aequorin, and (H4 only) human G protein Gα16 are obtained from Perkin-Elmer. Cells are maintained in F12 (Ham's) growth medium, containing 10% (vol./vol.) fetal bovine serum, penicillin (100 IU/mL), streptomycin (0.1 mg/mL), zeocin (0.25 mg/mL) and geneticin (0.40 mg/mL). Cell media components are from Invitrogen, Inc. One day prior to assay, the growth medium is replaced with the same, excluding zeocin and geneticin.
For assay preparation, growth medium is aspirated, and cells are rinsed with calcium-free, magnesium-free phosphate-buffered saline, followed by two to three minute incubation in Versene (Invitrogen, Inc.) at 37° C. Assay medium (DMEM:F12 [50:50], phenol-red free, containing 1 mg/mL protease-free bovine serum albumin) is added to collect the released cells, which are then centrifuged. The cell pellet is re-suspended in assay medium, centrifuged once more, and re-suspended in assay medium to a final density of 5×10^6 cells/mL. Coelenterazine-h dye (500 μM in ethanol) is added to a final concentration of 5 μM, and mixed immediately. The conical tube containing the cells is then wrapped with foil to protect the light-sensitive dye. The cells are incubated for four hours further at room temperature (approximately 21° C.) with end-over-end rotation to keep them in suspension.
Just before assay, the dye-loaded cells are diluted to 0.75×10^6 cells/mL (H1 receptor) or 1.5×10^6 cells/mL (H4 receptor) with additional assay medium. Cells are dispensed to 1536 well micro-titer plates at 3 μL/well. To assay receptor antagonism, 60 nl of 100× concentration test compounds in 100% dimethyl sulfoxide (DMSO) are dispensed to the wells, one compound per well, by passive pin transfer, and the plates are incubated for 15 minutes at room temperature. […] The pipette dispenses 3 μL/well of agonist (histamine, at twice the final concentration, where final concentration is a previously determined EC80) in assay medium, with concurrent bioluminescence detection. Agonist activity of test compounds is excluded by separate assays that measure response to test compounds immediately, without added histamine agonist.
CCD image capture on the Lumilux includes a 5 second baseline read prior to agonist addition, and generally a 40 second read per plate after agonist addition. A decrease in bioluminescence signal (measured either as area-under-the-curve, or maximum signal amplitude minus minimum signal amplitude) correlates with receptor antagonism in a dose dependent manner. The negative control is DMSO lacking any test compound. For antagonist assays, the positive controls are diphenhydramine (2-Diphenylmethoxy-N,N-dimethylethylamine, 10 μM final concentration, H1 receptor) or JNJ7777120 (1-[(5-Chloro-1H-indol-2-yl)carbonyl]-4-methyl-piperazine, 10 μM final concentration, H4 receptor). Efficacy is measured as a percentage of positive control activity.

human H1 = target: T2, human H1 (Homo sapiens, UniProt P35367); experiment: In vitro histamine H1 receptor cell-based aequorin bioluminescence antagonist assay; settings: CHO-K1 cells expressing human H1 and aequorin; histamine at EC80; read-out: H1 Antagonist EC50
T2 construct: host or cells: CHO-K1, also expressing mitochondrion-targeted aequorin
T2 sequence (P35367 whole entry): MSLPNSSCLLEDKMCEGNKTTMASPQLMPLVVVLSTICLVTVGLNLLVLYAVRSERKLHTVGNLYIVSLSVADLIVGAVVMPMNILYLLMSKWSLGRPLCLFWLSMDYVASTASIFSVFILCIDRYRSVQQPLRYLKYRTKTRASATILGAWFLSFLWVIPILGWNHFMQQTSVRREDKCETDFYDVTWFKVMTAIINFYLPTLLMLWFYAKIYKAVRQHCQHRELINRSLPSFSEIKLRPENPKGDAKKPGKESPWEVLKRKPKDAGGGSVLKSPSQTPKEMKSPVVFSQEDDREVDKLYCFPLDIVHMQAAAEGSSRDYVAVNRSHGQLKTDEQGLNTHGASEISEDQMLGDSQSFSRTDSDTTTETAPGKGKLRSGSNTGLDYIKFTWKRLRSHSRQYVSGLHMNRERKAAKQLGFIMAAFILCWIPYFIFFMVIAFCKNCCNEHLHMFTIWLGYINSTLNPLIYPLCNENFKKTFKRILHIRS
Outline: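 CHO-K1 cells stably expressing human H1 or H4 plus mitochondrial aequorin (H4 also with Gα16), loaded with 5 μM coelenterazine-h for 4 h at ~21 °C. Compounds preincubated 15 min at room temperature, then histamine at EC80 added.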

T1 sequence (Q9H3N8 whole entry): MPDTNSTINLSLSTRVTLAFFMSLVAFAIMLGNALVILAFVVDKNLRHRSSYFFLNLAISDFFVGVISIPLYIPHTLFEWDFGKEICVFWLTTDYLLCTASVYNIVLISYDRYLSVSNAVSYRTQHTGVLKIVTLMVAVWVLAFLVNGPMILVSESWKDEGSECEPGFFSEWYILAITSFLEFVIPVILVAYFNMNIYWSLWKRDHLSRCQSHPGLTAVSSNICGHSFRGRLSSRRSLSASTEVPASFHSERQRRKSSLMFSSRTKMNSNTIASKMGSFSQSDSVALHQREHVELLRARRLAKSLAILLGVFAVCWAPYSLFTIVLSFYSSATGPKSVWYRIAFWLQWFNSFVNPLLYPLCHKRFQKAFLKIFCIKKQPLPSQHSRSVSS

Compound	EC50 (human H4) [µM]	EC50 (human H1) [µM]
CN1CCC(N(C)c2ncnc3scc(-c4ccc(Br)cc4)c23)CC1 [Example 13, 5-(4-bromophenyl)-N-methyl-N-(1-methylpiperidin-4-yl)thieno[2,3-d]pyrimidin-4-amine]	> 10	
Cc1csc2ncnc(N(CCN(C)C)Cc3ccccc3)c12 [Example 244, N-benzyl-N-[2-(dimethylamino)ethyl]-5-methylthieno[2,3-d]pyrimidin-4-amine]	> 10	> 10
Cc1csc2ncnc(NCCO)c12 [Example 56, 2-({5-methylthieno[2,3-d]pyrimidin-4-yl}amino)ethan-1-ol]	> 10	> 10
Cc1csc2ncnc(N(Cc3cccnc3)Cc3cccnc3)c12 [Example 268, 5-methyl-N,N-bis(pyridin-3-ylmethyl)thieno[2,3-d]pyrimidin-4-amine]	> 10	> 10
Cc1csc2ncnc(N(CCC#N)Cc3ccccc3)c12 [Example 153, 3-[benzyl({5-methylthieno[2,3-d]pyrimidin-4-yl})amino]propanenitrile]	> 10	> 10
Cc1csc2ncnc(NCCN)c12 [Example 55, N-(2-aminoethyl)-5-methylthieno[2,3-d]pyrimidin-4-amine]	> 10	> 10
C#CCN(Cc1ccc(Cl)cc1Cl)c1ncnc2scc(C)c12 [Example 281, N-[(2,4-dichlorophenyl)methyl]-5-methyl-N-(prop-2-yn-1-yl)thieno[2,3-d]pyrimidin-4-amine]	> 10	> 10
CCOC(=O)N1CCN(c2ncnc3scc(C)c23)CC1 [Example 230]	> 10	> 10
Cc1csc2ncnc(NN3CCN(C)CC3)c12 [Example 93, 4-methyl-N-{5-methylthieno[2,3-d]pyrimidin-4-yl}piperazin-1-amine]	> 10	> 10
Cc1csc2ncnc(N(CCCO)Cc3ccccn3)c12 [Example 237, 3-({5-methylthieno[2,3-d]pyrimidin-4-yl}(pyridin-2-ylmethyl)amino)propan-1-ol]	> 10	> 10
Cc1csc2ncnc(N3CCSCC3)c12 [Example 197, 4-{5-methylthieno[2,3-d]pyrimidin-4-yl}thiomorpholine]	> 10	> 10
c1ccc(CN2CCN(c3ncnc4sc5c(c34)CCCC5)CC2)cc1 [Example 12, 4-(4-benzylpiperazin-1-yl)-5,6-tetrahydrobenzo[b]thiophenethieno[2,3-d]pyrimidine]	> 10	
Cc1csc2ncnc(NCCN3CCOCC3)c12 [Example 109, 5-methyl-N-[2-(morpholin-4-yl)ethyl]thieno[2,3-d]pyrimidin-4-amine]	> 10	> 10
Cc1csc2ncnc(N3CCN(c4ccc(C#N)cn4)CC3)c12 [Example 253, 6-(4-{5-methylthieno[2,3-d]pyrimidin-4-yl}piperazin-1-yl)pyridine-3-carbonitrile]	> 10	
Cc1csc2ncnc(N3CCN(c4ccc(Cl)cc4)CC3)c12 [Example 266, 1-(4-chlorophenyl)-4-{5-methylthieno[2,3-d]pyrimidin-4-yl}piperazine]	> 10	
Cc1ccc(C)c(N2CCN(c3ncnc4scc(C)c34)CC2)c1 [Example 259, 1-(2,5-dimethylphenyl)-4-{5-methylthieno[2,3-d]pyrimidin-4-yl}piperazine]	> 10	
Cc1csc2ncnc(N(C)CCc3ccccn3)c12 [Example 220, N,5-dimethyl-N-[2-(pyridin-2-yl)ethyl]thieno[2,3-d]pyrimidin-4-amine]	> 10	
Cc1csc2ncnc(N3CCC(N(C)C)C3)c12 (stereo not drawn) [Example 202, N,N-dimethyl-1-{5-methylthieno[2,3-d]pyrimidin-4-yl}pyrrolidin-3-amine]	> 10	
Cc1csc2c(NCCc3ccc(Cl)cc3)ncnc12 [Example 295, N-(4-chlorophenethyl)-7-methylthieno[3,2-d]pyrimidin-4-amine]		> 10

Compound	EC50 (human H4) [µM]	EC50 (human H1) [µM]
CCN(Cc1ccccc1)c1ncnc2scc(C)c12 [Example 217, N-benzyl-N-ethyl-5-methylthieno[2,3-d]pyrimidin-4-amine]		> 10
Cc1csc2ncnc(N(CCc3ccccc3)Cc3ccccc3)c12 [Example 277, N-benzyl-5-methyl-N-(2-phenylethyl)thieno[2,3-d]pyrimidin-4-amine]		> 10
Cc1csc2ncnc(NC(C)C(C)C)c12 (stereo not drawn) [Example 68, 5-methyl-N-(3-methylbutan-2-yl)thieno[2,3-d]pyrimidin-4-amine]		> 10
COc1cccc(CNc2ncnc3scc(C)c23)c1 [Example 125, N-[(3-methoxyphenyl)methyl]-5-methylthieno[2,3-d]pyrimidin-4-amine]		> 10
Cc1csc2ncnc(N3CCc4ccccc4C3)c12 [Example 216, 2-{5-methylthieno[2,3-d]pyrimidin-4-yl}-1,2,3,4-tetrahydroisoquinoline]		> 10
Cc1csc2ncnc(NCc3cccc(Cl)c3)c12 [Example 129, N-[(3-chlorophenyl)methyl]-5-methylthieno[2,3-d]pyrimidin-4-amine]		> 10
Clc1ccccc1CCNc1ncnc2sc3c(c12)CCCC3 [Example 297]		> 10
Cc1csc2ncnc(NCc3cccc(C(F)(F)F)c3)c12 [Example 165, 5-methyl-N-{[3-(trifluoromethyl)phenyl]methyl}thieno[2,3-d]pyrimidin-4-amine]		> 10
Cc1csc2ncnc(NCCC(C)(C)C)c12 [Example 78, N-(3,3-dimethylbutyl)-5-methylthieno[2,3-d]pyrimidin-4-amine]		> 10
Clc1ccc(CCNc2ncnc3sc4c(c23)CCCC4)c(Cl)c1 [Example 313]		> 10
Cc1csc2ncnc(NCC3CCCO3)c12 (stereo not drawn) [Example 77, 5-methyl-N-(oxolan-2-ylmethyl)thieno[2,3-d]pyrimidin-4-amine]		> 10
COc1ccccc1CNc1ncnc2scc(C)c12 [Example 123, N-[(2-methoxyphenyl)methyl]-5-methylthieno[2,3-d]pyrimidin-4-amine]		> 10
Cc1csc2ncnc(N3CCSC3)c12 [Example 189, 3-{5-methylthieno[2,3-d]pyrimidin-4-yl}-1,3-thiazolidine]		> 10
Cc1csc2ncnc(NC(C)CCCC(C)C)c12 (stereo not drawn) [Example 108, 5-methyl-N-(6-methylheptan-2-yl)thieno[2,3-d]pyrimidin-4-amine]		> 10
Cc1csc2ncnc(NCCc3ccc(S(N)(=O)=O)cc3)c12 [Example 173, 4-[2-({5-methylthieno[2,3-d]pyrimidin-4-yl}amino)ethyl]benzene-1-sulfonamide]		> 10
Cc1csc2ncnc(NC3CCN(Cc4ccccc4)C3)c12 (stereo not drawn) [Example 168, 1-benzyl-N-{5-methylthieno[2,3-d]pyrimidin-4-yl}pyrrolidin-3-amine]		> 10
CCCCNc1ncnc2scc(-c3ccccc3)c12 [Example 47, N-butyl-5-phenylthieno[2,3-d]pyrimidin-4-amine]		> 10
Cc1csc2ncnc(N3CCN(c4ccc(Cl)cc4)CC3)c12 [Example 6, 4-(4-(4-chlorophenyl)piperazin-1-yl)-5-methylthieno[2,3-d]pyrimidine]		> 10
